The test system of one experiment is Prevotella intermedia. The experiment can be described thus: Antimicrobial experiment, liquid dilution method, colony count. It counts as cell-based. On the procedure:
In order to determine the effect of the composition containing the antimicrobial peptide, an antimicrobial experiment was conducted according to the liquid dilution method. Prevotella intermedia, which is a bacterium causative of periodontal disease, was cultured in Tryptic soy broth. The above strain was cultured until the absorbance at 620 nm reached 1, and then the cells were collected and used in the experiment. The cells were diluted with PBS, bacteria were plated at 10^5-10^7/mL on a tryptic soy agar (TSA) plate, and incubated at 37° C. for 24 hours. In order to measure the antimicrobial activity of the peptides using a liquid dilution method, 1 ml of distilled water was added to a microtube, 10 µl of diluted bacterial solution was added thereto and 50 μl of the product was plated on a plate medium which was used as a control group.
After treatment with 50 μg/ml and 100 μg/ml of the peptide of SEQ ID NO: […] and 100 μg/ml of the peptide of SEQ ID NO: 2 at 37° C. for 1 hour, 50 μl of each of the product was plated and the number of colonies that formed was counted. In addition, the antimicrobial activity of the composition of Example 1, a composition containing the composition of Example 1 and the peptide of SEQ ID NO: 1, and a composition containing the composition of Example 1 and the peptide of SEQ ID NO: 2 was measured in the same manner as above.

Experiment [1] can be described thus: Test of lipopolysaccharide removal effect of nonionic surfactants. The settings on record: compared with other nonionic surfactants (polyoxyethylene, Tween series, span series). An excerpt:
Octyl phenol ethoxylate (C14H22O (C2H4O)n) is a nonionic surfactant, has a hydrophilic polyethylene oxide group and a hydrophobic 4-(1,1,3,3-tetramethylbutyl)-phenyl group, and is widely used as a detergent in the biochemical field. In immunostaining, octyl phenol ethoxylate permeabilizes the cell membrane at a concentration of 0.1 to 0.5%, and permeabilizes the cell wall of bacteria at a concentration of 1%. In the present invention, octyl phenol ethoxylate has an effect of removing lipopolysaccharide (LPS). Other nonionic surfactants widely used in this technical field include polyoxyethylene, Tween series, span series and the like.

Ends that are not written are not given here.

Take “GKSST RGRKS CRRKK-NH2 (GKSSTRGRKSCRRKK-NH2) [peptide of SEQ ID NO: 2, antimicrobial peptide]”: in the experiment on Prevotella intermedia (among peptides of SEQ ID NO: 1 to SEQ ID NO: 4), the antimicrobial activity entry is recorded as “best antimicrobial activity”. The “antimicrobial activity of peptide (colonies formed)” value with Prevotella intermedia (peptide at 100 μg/ml, 37° C., 1 hour, FIG. 6) is listed as “the highest”.
Take octyl phenol ethoxylate: the lipopolysaccharide removal effect entry in experiment [1] is “greatest lipopolysaccharide removal effect”.
